In patent EP1200395B1, “UREA DERIVATIVES AS INHIBITORS OF CCR-3 RECEPTOR” (KIRIN BEER KABUSHIKI KAISHA, priority 1999, dated 2001):

Biological target: T1, CCR-3 (Homo sapiens, UniProt P51677)
T1 sequence (P51677 1-355): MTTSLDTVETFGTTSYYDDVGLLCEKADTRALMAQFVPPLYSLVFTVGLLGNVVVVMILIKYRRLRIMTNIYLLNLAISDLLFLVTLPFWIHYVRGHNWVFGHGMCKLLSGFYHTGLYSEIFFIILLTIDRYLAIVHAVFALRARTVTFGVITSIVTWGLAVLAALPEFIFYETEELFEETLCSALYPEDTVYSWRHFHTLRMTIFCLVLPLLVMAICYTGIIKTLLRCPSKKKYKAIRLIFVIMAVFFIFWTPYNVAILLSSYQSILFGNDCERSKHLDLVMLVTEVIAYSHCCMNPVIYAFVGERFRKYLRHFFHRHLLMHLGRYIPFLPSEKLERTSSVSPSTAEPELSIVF
Experiment: Eotaxin-induced chemotaxis of CCR-3 transfectant cells (CCR3/U937)
Format: cell-based
Set-up: expressed in transfected cells; host or cells: U937
Conditions: 10 µM test compound; eotaxin 1 x 10^-9 M; CCR3/U937 cells (Table 3a)
Method: The inhibitory activity of the compounds against eotaxin-induced chemotaxis was determined by measuring the inhibition of migration of CCR-3 transfectant cells (CCR3/U937), using a minor modification of the method described by Ohashi, H. et al., Int Arch Allergy Immunol. […] The chemotaxis assay was performed in a 24-well culture plate. Human eotaxin suspended in assay medium was added to the wells at 1 x 10^-9 M along with test compounds at various concentrations. For a positive control, eotaxin was added to the wells without a test compound, and for a negative control, neither eotaxin nor a test compound was added to the wells. Chemotaxicell (Kurabo Co., Ltd.) having 5 micrometers pore size were inserted into each well and 100 micro liters of CCR-3 transfectant cells suspension were added to the top chamber. The plates were incubated at 37 °C for 1 hour. After incubation, migrated cells in lower wells were diluted and counted by particle size distribution analyzer (CDP-500, Sysmex Co., Ltd.).

SMILES | Chemotaxis Assay 10 µM (inhibition %) [%]
O=C(NCCCN(CCCO)CCc1ccc(Cl)cc1)Nc1ccccc1 [Compound 219] | 86
NC(=O)CN(CCCNC(=O)Nc1ccccc1)CCc1ccc(Cl)cc1 [Compound 220] | 77
C=CCN(CCCNC(=O)Nc1ccccc1)CCc1ccc(Cl)cc1 [Compound 221] | 100
O=C(NCCCN(Cc1ccc(C(=O)O)cc1)C1CCCc2ccccc21)Nc1ccc(Br)cc1 (centres unmarked) [Compound 223] | 86
CCOC(=O)C1CC1CN(CCCNC(=O)Nc1ccc(Br)cc1)C1CCCc2ccccc21 (centres unmarked) [Compound 224] | 75
COC(=O)CCCN(CCCNC(=O)Nc1ccc(C(=O)O)cc1)C1CCCc2ccccc21 (centres unmarked) [Compound 225, Methyl 4-[[3-[4-(carboxy)phenylureido]propyl](1,2,3,4-tetrahydro-1-naphthyl)amino]butylate] | 100
Cc1ccc(C(C)N(CCCNC(=O)Nc2ccc(Br)cc2)CCCC(=O)O)cc1 (centres unmarked) [Compound 226] | 100
CCN(CCCNC(=O)Nc1ccccc1)CCc1ccc(F)cc1 [Compound 230] | 100
CCN(CCCNC(=O)Nc1ccccc1)CCc1ccc(C)cc1 [Compound 231] | 90
CCN(CCCNC(=O)Nc1ccccc1)CCc1ccccc1Cl [Compound 232] | 100
CCN(CCCNC(=O)Nc1ccccc1)CCc1cccc(Cl)c1 [Compound 233] | 100
CCN(CCCNC(=O)Nc1ccccc1)C1CCc2ccccc21 (centres unmarked) [Compound 234] | 89
O=C(O)CCCN(CCCNC(=O)Nc1ccc(C(=O)O)cc1)C1CCCc2ccccc21 (centres unmarked) [Compound 235] | 91
CCOC(=O)c1cccc(NC(=O)NCCCN(CCCC(=O)O)C2CCCc3ccccc32)c1 (centres unmarked) [Compound 236] | 97
CC(C)CN(CCCNC(=O)Nc1ccccc1)CCc1ccc(Cl)cc1 [Compound 239] | 100
O=C(NCCCN(CCc1ccc(Cl)cc1)CC1CCCCC1)Nc1ccccc1 [Compound 240] | 86
COC(=O)CCCCN(CCCNC(=O)Nc1ccccc1)CCc1ccc(Cl)cc1 [Compound 241] | 100
CCOC(=O)CCCCCN(CCCNC(=O)Nc1ccccc1)CCc1ccc(Cl)cc1 [Compound 242] | 73
NC(=O)CCN(CCCNC(=O)Nc1ccccc1)CCc1ccc(Cl)cc1 [Compound 243] | 84
CC(=O)OCCN(CCCNC(=O)Nc1ccccc1)CCc1ccc(Cl)cc1 [Compound 244] | 81
COC(=O)CN(CCCNC(=O)Nc1ccccc1)CCc1ccc(Cl)cc1 [Compound 245] | 100

SMILES | Chemotaxis Assay 10 µM (inhibition %) [%]
CC(c1ccc([N+](=O)[O-])cc1)N(CCCNC(=O)Nc1ccc(Br)cc1)CCCC(=O)O (centres unmarked) [Compound 259] | 100
N#Cc1cccc(NC(=O)NCCCN(CCCC(=O)O)C2CCCc3ccccc32)c1 (centres unmarked) [Compound 260] | 100
COc1cccc(NC(=O)NCCCN(CCCC(=O)O)C2CCCc3ccccc32)c1 (centres unmarked) [Compound 261] | 100
CC(=O)c1cccc(NC(=O)NCCCN(CCCC(=O)O)C2CCCc3ccccc32)c1 (centres unmarked) [Compound 262] | 62
CSc1cccc(NC(=O)NCCCN(CCCC(=O)O)C2CCCc3ccccc32)c1 (centres unmarked) [Compound 263] | 100
CSc1ccc(NC(=O)NCCCN(CCCC(=O)O)C2CCCc3ccccc32)cc1 (centres unmarked) [Compound 264] | 100
O=C(O)CCCN(CCCNC(=O)Nc1ccc2ccccc2c1)C1CCCc2ccccc21 (centres unmarked) [Compound 265] | 95
O=C(O)CCCN(CCCNC(=O)Nc1ccc(OC(F)(F)F)cc1)C1CCCc2ccccc21 (centres unmarked) [Compound 266] | 100
CC(c1cccc2ccccc12)N(CCCNC(=O)Nc1ccc(Br)cc1)CCCC(=O)O (centres unmarked) [Compound 268] | 100
CC(c1ccc2ccccc2c1)N(CCCNC(=O)Nc1ccc(Br)cc1)CCCC(=O)O (centres unmarked) [Compound 270] | 100
CCC(c1ccccc1)N(CCCNC(=O)Nc1ccc(Br)cc1)CCCC(=O)O (centres unmarked) [Compound 271] | 100
O=C(O)CCCN(CCCNC(=O)Nc1ccc(Br)cc1)C1c2ccccc2CC1O (centres unmarked) [Compound 273] | 88
COC(=O)CCCN(CCCNC(=O)Nc1ccccc1)CCc1ccc(Cl)cc1 [Compound 274] | 60
COCCN(CCCNC(=O)Nc1ccccc1)CCc1ccc(Cl)cc1 [Compound 275] | 100
CC(C)N(CCCNC(=O)Nc1ccccc1)CCc1ccc(Cl)cc1 [Compound 276] | 100
O=C(O)CCCN(CCCNC(=O)Nc1ccc(-c2ccccc2)cc1)C1CCCc2ccccc21 (centres unmarked) [Compound 277] | 76
CC(=O)c1ccc(NC(=O)NCCCN(CCCC(=O)O)C2CCCc3ccccc32)cc1 (centres unmarked) [Compound 278] | 100
O=C(NCCCN(CCc1cccc(Cl)c1)Cc1ccccc1)Nc1ccccc1 [Compound 280] | 60
N#Cc1ccc(CN(CCCNC(=O)Nc2ccccc2)CCc2ccc(Cl)cc2)cc1 [Compound 291] | 53
COc1cc(CN(CCCNC(=O)Nc2ccccc2)CCc2ccc(Cl)cc2)cc(OC)c1 [Compound 292] | 56

Same assay, conditions: 10 µM test compound; eotaxin 1 x 10^-9 M; CCR3/U937 cells (Table 3c)

SMILES | Chemotaxis Assay 10 µM (inhibition %) [%]
CCCC[N+](CC)(CCCNC(=O)Nc1ccc(Br)cc1)CCc1ccc(Cl)cc1.[I-] (centres unmarked) [Compound 294] | 100
CCC[N+](CC)(CCCNC(=O)Nc1ccc(Br)cc1)CCc1ccc(Cl)cc1.[I-] (centres unmarked) [Compound 295] | 100
CC[N+](CCCNC(=O)Nc1ccccc1)(CCc1ccc(Cl)cc1)Cc1ccc(C)cc1.[I-] (centres unmarked) [Compound 297] | 100
CC[N+](CCCO)(CCCNC(=O)Nc1ccccc1)CCc1ccc(Cl)cc1.[I-] (centres unmarked) [Compound 299] | 100
CC[N+](CCCNC(=O)Nc1ccccc1)(CCc1ccc(Cl)cc1)CC(N)=O.[I-] (centres unmarked) [Compound 300] | 100
C=CC[N+](CC)(CCCNC(=O)Nc1ccccc1)CCc1ccc(Cl)cc1.[I-] (centres unmarked) [Compound 301] | 100

Same assay, conditions: U-937; 10 µM test compound; eotaxin 1 x 10^-9 M; CCR3/U937 cells (Table 3a)

SMILES | inhibition at 10 µM [%]
COc1ccc([C@@H](C)N(CCCNC(=O)Nc2ccc(Br)cc2)CCCC(=O)O)cc1 [Compound 227, 4-[[3-(4-Bromophenylureido)propyl][(1R)-1-(4-methoxyphenyl)ethyl]amino]butanoic acid] | 100
CCOC(=O)c1ccc(NC(=O)NCCCN(CCCC(=O)O)C2CCCc3ccccc32)cc1 (centres unmarked) [Compound 228, 4-[[3-[4-(Ethoxycarbonyl)phenylureido]propyl](1,2,3,4-tetrahydro-1-naphthyl)amino]butanoic acid] | 100
O=C(O)CCCN(CCCNC(=O)Nc1ccc(I)cc1)C1CCCc2ccccc21 (centres unmarked) [Compound 229, 4-[[3-(4-Iodophenylureido)propyl](1,2,3,4-tetrahydro-1-naphthyl)amino]butanoic acid] | 100
O=C(NCCCN(CCc1ccc(Cl)cc1)CCc1ccc(Cl)cc1)Nc1ccccc1 [Compound 238, [3-(Phenylureido)propyl]bis[2-(4-chlorophenyl)ethyl]amine] | 69
C[C@H](c1ccc(Br)cc1)N(CCCNC(=O)Nc1ccc(Br)cc1)CCCC(=O)O [Compound 258, 4-[[3-(4-Bromophenylureido)propyl] [(1R)-1-(4-bromophenyl)ethyl]amino]butanoic acid] | 100
CC(c1ccc(F)cc1)N(CCCNC(=O)Nc1ccc(Br)cc1)CCCC(=O)O (centres unmarked) [Compound 269, 4-[[3-(4-Bromophenylureido)propyl][1-(4-fluorophenyl)ethyl]amino]butanoic acid] | 100
CC(c1ccc(Cl)cc1)N(CCCNC(=O)Nc1ccc(Br)cc1)CCCC(=O)O (centres unmarked) [Compound 272, 4-[[3-(4-Bromophenylureido)propyl][1-(4-chlorophenyl)ethyl]amino]butanoic acid] | 89
C[C@@H](c1ccc(Br)cc1)N(CCCNC(=O)Nc1ccc(Br)cc1)CCCC(=O)O [Compound 293, 4-[[3-(4-Bromophenylureido)propyl][(1S)-1-(4-bromophenyl)ethyl]amino]butanoic acid] | 95

Same assay, conditions: U-937; 10 µM test compound; eotaxin 1 x 10^-9 M; CCR3/U937 cells (Table 3c)

SMILES | inhibition at 10 µM [%]
Cc1ccc(C[N+](CCCNC(=O)Nc2ccccc2)(CCc2ccc(Cl)cc2)Cc2ccc(C)cc2)cc1 [Compound 296, [3-(Phenylureido)propyl][2-(4-chlorophenyl)ethyl]bis(4-methylbenzyl)ammonium iodide] | 67
